We go through two molecules from PMC7596511 (Scientific Reports, 2020).

For one assay, the target named is T1, AgamOBP20 (Anopheles gambiae, UniProt Q7Q9J3).
T1 sequence (Q7Q9J3 24-142): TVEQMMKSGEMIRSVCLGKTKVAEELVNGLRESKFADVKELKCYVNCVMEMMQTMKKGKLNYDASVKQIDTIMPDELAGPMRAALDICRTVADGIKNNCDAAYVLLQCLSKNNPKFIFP
Put plainly: Fluorescence competitive binding test (FCBT), 1-NPN probe. Also noted: species or system Anopheles gambiae s.s. The method, then: (§1) For recombinant OBPs, we first need to obtain the OBPs related genes. DNA of A. gambiae s.s. female adults was extracted following the procedure used in a previous study. The predicted AgamOBPs and AgamORs were detected using standard PCR with specific respective primers which were designed using Primer Premier 5 (Premier Biosoft, California, USA; Table S1). Each PCR mixture contained 1 μl of A. gambiae s.s. […] (200 ng·ml^−1; previously extracted using a DNA extraction kit from Transgen Biotech, Beijing, China), 12.5 μl prime STAR Max Premix (2 ×), 1.5 μl of each primer ([…]), and […] sterilized H2O. The PCR cycling conditions were as follows: an initial denaturation at 94 °C for 40 s, followed by 35 cycles at […] for 40 s (denaturing), 59 °C for 50 s (annealing) and 72 °C for 3 min. The PCR products were verified and sent for sequencing. Recombinant proteins were generated by transforming plasmids containing the verified […] genes into Escherichia coli BL21 (DE3) cells. We then induced recombinant protein expression using 1 mM isopropyl ß-D-1-thiogalactopyranoside at 37 °C for 6 h. The recombinant proteins were purified using two rounds of […] ion affinity chromatography (GE Healthcare, Milwaukee, WI, USA), following the manufacturer's instructions[5],[53]; the His-tags were removed simultaneously using recombinant enterokinase (Novagen, Madison, WI, USA), following the manufacturer's instructions. The purified proteins were desalted using extensive dialysis. The size and purity of each desalted protein were determined using 15% sodium dodecylsulphate-polyacrylamide gel electrophoresis (SDS-PAGE)[55].
(§2) This assay assumes that the receptors are 100% active, and that each receptor can only bind to one ligand[56].
(§3) Recombinant proteins were dissolved in 50 mM Tris–HCl protein buffer to yield a final concentration of […], respectively. The fluorescence competitive binding were conducted in a 1-cm quartz cell and the fluorescence intensity F95S fluorescence spectrophotometer (Shanghai Lengguang Technology Co., Ltd., Shanghai, China) at 25 °C with the following parameters: excitation of 10 nm; emission slit of 10 nm; sensitivity of 2 s; gain value of 2; excitation wavelength of 337 nm; and an emission wavelength range of 370–500 nm, as a previous study.
(§4) First, the binding constant (Kd) for each recombinant protein to the 1-N-phenyl-naphthylamine (1-NPN) fluorescent probe was detected. In brief, 2 ml of protein solution and 2 μl of 1-NPN solution were added to the quartz cell and thoroughly mixed for 1 min. Peak fluorescence was continuously recorded until it stabilized and began to decrease.
(§5) Next, the ligands were added to the quartz cell along with each receptor, in order to competitively bind to the fluorescent probe. In brief, 2 ml of protein solution and 2 ml of 1-NPN solution were added to the quartz cell, and the fluorescence peaks were scanned and recorded. Then, 2 μl of each ligand was added and allowed to sit for 1 min before the peak fluorescence was scanned and recorded. We then continued to add 2 μl aliquots of the ligand solution until the fluorescence was less than half of the initial value.
(§6) The binding curves were then linearized using a Scatchard plot, which calculates the concentration of the competitor that halves the initial fluorescence intensity (IC50).

The target of another assay is T2, AgamOBP4 (Anopheles gambiae, UniProt Q8T6R7).
T2 sequence (Q8T6R7 26-150): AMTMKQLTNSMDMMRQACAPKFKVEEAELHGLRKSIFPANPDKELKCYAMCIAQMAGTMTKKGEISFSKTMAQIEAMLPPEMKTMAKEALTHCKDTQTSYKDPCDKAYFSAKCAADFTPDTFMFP
The assay is described as above. Also noted: species or system Anopheles gambiae s.s. As for the experimental part:
as §1, §2, §3, §4, §5, §6

In the next assay the target is T3, AgamOBP5 (Anopheles gambiae, UniProt Q8T6R6).
T3 sequence (Q8T6R6 32-154): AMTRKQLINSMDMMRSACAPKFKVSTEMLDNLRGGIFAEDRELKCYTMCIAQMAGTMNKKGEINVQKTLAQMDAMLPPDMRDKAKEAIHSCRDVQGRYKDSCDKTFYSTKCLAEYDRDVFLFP
The assay is described as above. Also noted: species or system Anopheles gambiae s.s. The method, then: as §1, §2, §3, §4, §5, §6

For another assay, the target named is T4, AgamORC7 (Anopheles gambiae, UniProt Q7QCC7).
T4 construct: His-tag (cleaved yes); made in house; host or cells: Escherichia coli BL21 (DE3)
T4 sequence (Q7QCC7 1-478): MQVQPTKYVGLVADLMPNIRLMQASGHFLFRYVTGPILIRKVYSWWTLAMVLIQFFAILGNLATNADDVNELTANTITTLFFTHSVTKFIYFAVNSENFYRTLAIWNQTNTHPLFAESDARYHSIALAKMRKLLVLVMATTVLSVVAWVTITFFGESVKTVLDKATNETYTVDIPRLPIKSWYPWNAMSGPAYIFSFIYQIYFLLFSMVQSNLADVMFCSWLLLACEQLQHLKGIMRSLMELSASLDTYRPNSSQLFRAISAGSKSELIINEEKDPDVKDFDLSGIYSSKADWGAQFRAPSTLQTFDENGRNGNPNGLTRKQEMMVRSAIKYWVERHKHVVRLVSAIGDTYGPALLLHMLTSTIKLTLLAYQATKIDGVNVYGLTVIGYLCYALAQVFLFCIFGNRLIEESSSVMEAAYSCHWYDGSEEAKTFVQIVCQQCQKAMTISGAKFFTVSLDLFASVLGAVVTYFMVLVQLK
Described as above. Also noted: species or system Anopheles gambiae s.s. The method, then:
as §1, §2, §3, §4, §5, §6

Assay [1] has as its system Anopheles gambiae s.s. females. The assay can be described thus: Dual-choice Y-tube olfactory meter repellency test. Format: in vivo. As for the experimental part:
A glass Y-tube (1.6 cm i.d., 12-cm base , two 8-cm arms at a 45° angle from one another) olfactory meter described in our previous study was used in this experiment. […] The control cotton ball with triethyl citrate (without citronellal) was inserted into the other jar. Teflon tube was used to connect all parts of Y-tube olfactory meter. Fresh air was produced by an air pump at a rate of 200 ± 10 ml/min, and purified by active carbon and silicone before flowing into the jars. The headspace of citronellal volatile was combined with the purified air and went through one arm of the Y-tube while purified air without citronellal went through the other arm. The base of the Y-tube was connected to an air collection bottle. One hundred female A. gambiae s.s. were individually released in the air collection bottle (2-cm i.d., 8-cm high), where behavioral responses were monitored and recorded over a 300 s period. The collecting jar, Y-tubes, air collection bottle were cleaned with hot water (> 60 °C) after every 10 individuals were tested, and the cotton roll was renewed every 2 h. The olfactory test was repeated five times.

Entries after “also recorded” stand apart in the source; their conditions may differ.

With `c1ccc(Nc2cccc3ccccc23)cc1` [1-NPN, 1-N-phenyl-naphthylamine], the Kd on AgamOBP20 is 2170 nM; at AgamOBP4 it was 1140 nM; on AgamOBP5 it was 2440 nM; on AgamORC7 (Fig. 5 panel d, Scatchard, unit inferred), 1120 nM.

`CC(C)=CCCC(C)CC=O` (stereo not drawn) [citronellal]: the “repellent rate for 50% of individuals (RQ50)” value in assay [1] (Y-tube, quantity series 0.01-100 nmol on cotton ball, Probit analysis) is recorded as 4.02 nmol. Besides, the “Lg(RQ50)” value in assay [1] (regression of citronellal quantity vs repellent rate, Fig. 1) was found to be 0.604. For the same molecule, the “binding of citronellal in words” value on AgamOBP20 (competition with 1-NPN) and on AgamOBP5 (competition with 1-NPN) was “could not reduce fluorescent rate down below 50%; also recorded: cannot bind well” each time. Further, the IC50 turned out to be 1230 nM on AgamOBP4 (competition with 1-NPN, 25 °C) and 2230 nM at AgamORC7 (competition with 1-NPN, 25 °C). Also, the inhibition constant (Ki) on AgamOBP4 (competition with 1-NPN, 25 °C) is 710 nM; at AgamORC7 (competition with 1-NPN, 25 °C), 1570 nM.

Broadly, the Kd is the constant that tells how readily two partners part at equilibrium. One may read the IC50 as the point on the concentration scale where inhibition reaches its midpoint. A low value points to greater potency in that assay. Usually Ki stands for the equilibrium dissociation constant of an inhibitor or competing ligand from its target. A low value points to higher affinity.
